This experiment has as its system IL-12. In words: Human in vitro assay: inhibition of IL-12 production in IFNγ/LPS- or IFNγ/SAC-stimulated human PBMC or THP-1 cells (ELISA). The experiment is classed as cell-based. The note with it: read-out: IC50 Range (representative in vitro IC50 data). The gist of the method: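 Sandwich ELISA for IL-12 (p70, p40) on supernatants collected 18 h after stimulation gave IC50 values; MTS monitored viability. THP-1 cells: IFNγ 100 U/mL priming 22 h, SAC 0.025%. PBMC: IFNγ 30 U/mL for 22 h plus LPS 1 μg/mL, or IFNγ 100 U/mL plus SAC 0.01%. Final DMSO 0.25%.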
On the technique in general: In an ELISA, binding on a coated surface is turned into a signal by an enzyme label.
With `COCCN(C)c1cc(C(=O)Nc2cccc(C(C)C)c2)nc(N2CCOCC2)n1` [Compound 205, N-(3-isopropylphenyl)-6-((2-methoxyethyl)(methyl)amino)-2-morpholinopyrimidine-4-carboxamide], the IC50 was less than 1000 nM.

Consider `COCCN(C)c1cc(C(=O)Nc2ccc3c(c2)OCCO3)nc(N2CCOCC2)n1` [Compound 200, N-(2,3-dihydrobenzo[b][1,4]dioxin-6-yl)-6-((2-methoxyethyl)(methyl)amino)-2-morpholinopyrimidine-4-carboxamide], for which the IC50 was no less than 1000 nM.

For `O=C(Nc1cccc(N2CCCC2)c1)c1cc(OCCN2CCOCC2)nc(N2CCOCC2)n1` [Compound 278, 2-Morpholin-4-yl-6-(2-morpholin-4-yl-ethoxy)-pyrimidine-4-carboxylic acid (3-pyrrolidin-1-yl-phenyl)-amide], the IC50 is less than 1000 nM.

Take `O=C(Nc1cc(OCCN2CCOCC2)nc(N2CCOCC2)n1)Nc1nc2ccc(Cl)cc2o1` [Compound 135, 1-(6-Chloro-benzooxazol-2-yl)-3-[2-morpholin-4-yl-6-(2-morpholin-4-yl-ethoxy)-pyrimidin-4-yl]-urea]: the IC50 was less than 1000 nM.

In the case of `CN(C)C(=O)c1cccc(NC(=O)c2cc(OCCN3CCOCC3)nc(N3CCOCC3)n2)c1` [Compound 53, 2-Morpholin-4-yl-6-(2-morpholin-4-yl-ethoxy)-pyrimidine-4-carboxylic acid (3-dimethylcarbamoyl-phenyl)-amide], the IC50 was no less than 1000 nM.

On to `COCCN(C)c1cc(C(=O)Nc2nc(C)cc(C)n2)nc(N2CCOCC2)n1` [Compound 240, 6-[(2-Methoxy-ethyl)-methyl-amino]-2-morpholin-4-yl-pyrimidine-4-carboxylic acid (4,6-dimethyl-pyrimidin-2-yl)-amide], for which the IC50 is no less than 1000 nM.

Take `COCCN(C)c1cc(C(=O)Nc2ccc(C(C)C)c(C)c2)nc(N2CCOCC2)n1` [Compound 229, 6-[(2-Methoxy-ethyl)-methyl-amino]-2-morpholin-4-yl-pyrimidine-4-carboxylic acid (4-isopropyl-3-methyl-phenyl)-amide]: the IC50 is no less than 1000 nM.

Regarding `O=C(Nc1ccc2ccccc2c1)c1cc(OCCc2ccccn2)nc(N2CCOCC2)n1` [Compound 37, 2-Morpholin-4-yl-6-(2-pyridin-2-yl-ethoxy)-pyrimidine-4-carboxylic acid naphthalen-2-ylamide], the IC50 was no less than 1000 nM.

Take `CNc1ccc(NC(=O)c2cc(OCCN3CCOCC3)nc(N3CCOCC3)n2)cc1C` [Compound 289, 2-Morpholin-4-yl-6-(2-morpholin-4-yl-ethoxy)-pyrimidine-4-carboxylic acid (3-methyl-4-methylamino-phenyl)-amide]: the IC50 was no less than 1000 nM.

For the molecule `O=C(Nc1cccc(F)c1)Nc1cc(OCCN2CCOCC2)nc(N2CCOCC2)n1` [Compound 125, 1-(3-Fluoro-phenyl)-3-[2-morpholin-4-yl-6-(2-morpholin-4-yl-ethoxy)-pyrimidin-4-yl]-urea], the IC50 is less than 1000 nM.

As to `CC(=O)N1CCN(c2cc(C(=O)Nc3ccc4[nH]c(C)c(C)c4c3)nc(N3CCOCC3)c2)CC1` [Compound 169, 4-(4-Acetyl-piperazin-1-yl)-6-morpholin-4-yl-pyridine-2-carboxylic acid (2,3-dimethyl-1H-indol-5-yl)-amide], the IC50 is less than 1000 nM.

Turning to `COCCN(C)c1cc(C(=O)Nc2cccc(-n3cccn3)c2)nc(N2CCOCC2)n1` [Compound 311, 6-[(2-Methoxy-ethyl)-methyl-amino]-2-morpholin-4-yl-pyrimidine-4-carboxylic acid (3-pyrazol-1-yl-phenyl)-amide], the IC50 was less than 1000 nM.

`COCCN(C)c1cc(C(=O)NCCN(C)C)nc(N2CCOCC2)n1` [Compound 162, 6-[(2-Methoxy-ethyl)-methyl-amino]-2-morpholin-4-yl-pyrimidine-4-carboxylic acid (2-dimethylamino-ethyl)-amide]: the concentration for half-maximal inhibition (IC50) was no less than 1000 nM.

`Cc1cccc(NC(=O)CNc2cc(C(=O)Nc3ccc4[nH]c(C)c(C)c4c3)nc(N3CCOCC3)n2)c1` [Compound 111, 2-Morpholin-4-yl-6-[(m-tolylcarbamoyl-methyl)-amino]-pyrimidine-4-carboxylic acid (2,3-dimethyl-1H-indol-5-yl)-amide]: the IC50 was less than 1000 nM.

For the molecule `Cc1cccc(NC(=O)Nc2cc(N3CCOCC3)nc(OCCc3ccccn3)n2)c1` [Compound 68, 1-[6-Morpholin-4-yl-2-(2-pyridin-2-yl-ethoxy)-pyrimidin-4-yl]-3-m-tolyl-urea], the IC50 was no less than 1000 nM.

Consider `Cc1[nH]c2ccc(NC(=O)c3cc(OCCC#N)nc(N4CCOCC4)n3)cc2c1C` [Compound 250, 6-(2-cyanoethoxy)-N-(2,3-dimethyl-1H-indol-5-yl)-2-morpholinopyrimidine-4-carboxamide], for which the IC50 is less than 1000 nM.

Take `Cc1[nH]c2ccc(NC(=O)c3cc(NCC(N)=O)nc(N4CCOCC4)n3)cc2c1C` [Compound 104, 6-(Carbamoylmethyl-amino)-2-morpholin-4-yl-pyrimidine-4-carboxylic acid (2,3-dimethyl-1H-indol-5-yl)-amide]: the 50% inhibitory concentration (IC50) was less than 1000 nM.

Regarding `Cc1c(C)n(C)c2ccc(NC(=O)c3cc(N4CCOCC4)cc(N4CCOCC4)n3)cc12` [Compound 147, 4,6-Di-morpholin-4-yl-pyridine-2-carboxylic acid (1,2,3-trimethyl-1H-indol-5-yl)-amide], the IC50 was less than 1000 nM.

As for `Cc1[nH]c2ccc(NC(=O)c3cc(OCCN4CCNCC4)nc(N4CCOCC4)n3)cc2c1C` [Compound 246, N-(2,3-dimethyl-1H-indol-5-yl)-2-morpholino-6-(2-(piperazin-1-yl)ethoxy)pyrimidine-4-carboxamide], the IC50 was less than 1000 nM.

Regarding `COCCN(C)c1cc(C(=O)Nc2ccc3cnn(C)c3c2)nc(N2CCOCC2)n1` [Compound 217, 6-((2-methoxyethyl)(methyl)amino)-N-(1-methyl-1H-indazol-6-yl)-2-morpholinopyrimidine-4-carboxamide], the IC50 was no less than 1000 nM.

With `CCc1c[nH]c2ccc(NC(=O)c3cc(N4CCC(O)CC4)cc(N4CCOCC4)n3)cc12` [Compound 174, 4-Hydroxy-6′-morpholin-4-yl-3,4,5,6-tetrahydro-2H-[1,4′]bipyridinyl-2′-carboxylic acid (3-ethyl-1H-indol-5-yl)-amide], the IC50 was less than 1000 nM.

In the case of `COCCN(C)c1cc(C(=O)Nc2cccc(N(C)C)c2)nc(N2CCOCC2)n1` [Compound 302, 6-[(2-Methoxy-ethyl)-methyl-amino]-2-morpholin-4-yl-pyrimidine-4-carboxylic acid (3-dimethylamino-phenyl)-amide], the IC50 is less than 1000 nM.

Turning to `CNCCOc1cc(C(=O)Nc2ccc3c(c2)c(C)c(C)n3C)nc(N2CCOCC2)n1` [Compound 286, 6-(2-Methylamino-ethoxy)-2-morpholin-4-yl-pyrimidine-4-carboxylic acid (1,2,3-trimethyl-1H-indol-5-yl)-amide], the IC50 is less than 1000 nM.

As for `O=C(Nc1nc(OCCc2ccccn2)cc(N2CCOCC2)n1)c1ccncc1` [Compound 76, N-[4-Morpholin-4-yl-6-(2-pyridin-2-yl-ethoxy)-pyrimidin-2-yl]-isonicotinamide], the half-maximal inhibitory concentration (IC50) was no less than 1000 nM.

Regarding `CCCCN(C)C(=O)CNc1cc(C(=O)Nc2ccc3[nH]c(C)c(C)c3c2)nc(N2CCOCC2)n1` [Compound 107, 6-{[(Butyl-methyl-carbamoyl)-methyl]-amino}-2-morpholin-4-yl-pyrimidine-4-carboxylic acid (2,3-dimethyl-1H-indol-5-yl)-amide], the IC50 is less than 1000 nM.

By IC50 is commonly meant the midpoint of a concentration-inhibition curve.

The values above are taken from patent US20060223996A1, “IL-12 modulatory compounds” (Synta Pharmaceuticals Corp., priority 2004, published 2006).
